Four compounds from ChEMBL document CHEMBL5584320, “Pemuchiamides A and B, Proline-Rich Linear Lipopeptides, Isolated from a Marine Hormoscilla sp. Cyanobacterium” (J Nat Prod, 2024) can be followed below.

The structures appear in SMILES notation.

One assay concerns HL-60. Put plainly: Growth inhibition of human HL-60 cells assessed as reduction cell viability incubated for 72 hrs by MTT assay. In kind it is functional, cell-based. Particulars: HL-60, 72 h. On the technique in general: Tetrazolium assays rely on reduction of a dye to a coloured formazan, in cell work by metabolically active cells.
The next assay relates to HeLa. The assay is described as follows: Growth inhibition of human HeLa cells assessed as reduction cell viability incubated for 72 hrs by MTT assay. It counts as functional, cell-based.
The subject of assay [1] is Trypanosoma brucei rhodesiense. The assay is described as follows: Antitrypanosomal activity against blood stream form of Trypanosoma brucei rhodesiense IL-1501 assessed as growth inhibition incubated for 69 hrs by alamar blue staining based microplate fluorescence scanner analysis. In kind it is functional, organism-based. Particulars: IL-1501, 69 h. Background: Alamar Blue is a resazurin reagent that responds to reducing activity.

For orientation: IC50 means the point on the concentration scale where inhibition reaches its midpoint. `CC[C@H](C)[C@H](NC(=O)[C@@H]1CCCN1C(=O)[C@@H](CC(C)C)NC(=O)[C@H]1CSC([C@@H]2CCCN2C(=O)[C@@H]2CCCN2C(=O)[C@@H](Cc2ccccc2)N(C)C(=O)CNC(=O)[C@@H](NC(=O)C[C@H](O)CNC(=O)CCCc2ccc(O)cc2)C(C)C)=N1)C(=O)N[C@H](Cc1ccccc1)C(=O)N1CCC[C@H]1C(=O)OC`: the IC50 in the assay with HL-60 is 2100 nM; with HeLa it was 3900 nM; in assay [1], 5400 nM.
For the compound `CC[C@H](C)[C@H](NC(=O)[C@@H]1CCCN1C(=O)[C@@H](CC(C)C)NC(=O)[C@H]1CSC([C@@H]2CCCN2C(=O)[C@@H]2CCCN2C(=O)[C@@H](Cc2ccccc2)N(C)C(=O)CNC(=O)[C@@H](NC(=O)CCCNC(=O)CCCc2ccc(O)cc2)C(C)C)=N1)C(=O)N[C@H](Cc1ccccc1)C(=O)N1CCC[C@H]1C(=O)OC`, the IC50 in the assay with HL-60 came to 1400 nM; with HeLa it was 2900 nM; in assay [1], 630 nM.
On to `COc1cccc2c1C(=O)c1c(O)c3c(c(O)c1C2=O)C[C@@](O)(C(=O)CO)C[C@@H]3O[C@H]1C[C@H](N)[C@H](O)[C@H](C)O1` [DOXORUBICIN], for which the IC50 was found to be 11 nM in the assay on HL-60 and 290 nM in the assay with HeLa.
Take `N=C(N)c1ccc(OCCCCCOc2ccc(C(=N)N)cc2)cc1` [PENTAMIDINE]: the IC50 in assay [1] is 4 nM.
